The supplement of paper PMC11451515

System: SEM cells
Test: cell viability relative to DMSO control; higher = less cytotoxic
Conditions: 48 h
How it was run: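 In 1536-well plates, 5 μl of leukemia cells were seeded per well: 500 cells/well for NOMO1 or SEM and 1000 cells/well for P12-Ichikawa. Each line had first been adapted for at least four passages in each medium. Library compounds in DMSO were pin-dosed at 11 threefold concentrations between 47 μM and 0.79 nM, and CellTiter-Glo One luminescence was read after 48 h at 37°C. Viability is a per-plate percentage relative to DMSO wells, with cell-free wells as background.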

[1] = HPLM + 10% dialyzed FBS, 0.000781 µM
[2] = HPLM + 10% dialyzed FBS, 0.00234 µM
[3] = HPLM + 10% dialyzed FBS, 0.00702 µM
[4] = HPLM + 10% dialyzed FBS, 0.0211 µM
[5] = HPLM + 10% dialyzed FBS, 0.0632 µM
[6] = HPLM + 10% dialyzed FBS, 0.19 µM
[7] = HPLM + 10% dialyzed FBS, 0.569 µM
[8] = HPLM + 10% dialyzed FBS, 1.71 µM
[9] = HPLM + 10% dialyzed FBS, 5.12 µM
[10] = HPLM + 10% dialyzed FBS, 15.4 µM
[11] = HPLM + 10% dialyzed FBS, 46.1 µM
[12] = RPMI 5 mM glucose + 10% FBS, 0.000781 µM
[13] = RPMI 5 mM glucose + 10% FBS, 0.00234 µM
[14] = RPMI 5 mM glucose + 10% FBS, 0.00702 µM
[15] = RPMI 5 mM glucose + 10% FBS, 0.0211 µM
[16] = RPMI 5 mM glucose + 10% FBS, 0.0632 µM
[17] = RPMI 5 mM glucose + 10% FBS, 0.19 µM
[18] = RPMI 5 mM glucose + 10% FBS, 0.569 µM
[19] = RPMI 5 mM glucose + 10% FBS, 1.71 µM
[20] = RPMI 5 mM glucose + 10% FBS, 5.12 µM
[21] = RPMI 5 mM glucose + 10% FBS, 15.4 µM
[22] = RPMI 5 mM glucose + 10% FBS, 46.1 µM
[23] = RPMI 5 mM glucose + 10% dialyzed FBS, 0.000781 µM
[24] = RPMI 5 mM glucose + 10% dialyzed FBS, 0.00234 µM
[25] = RPMI 5 mM glucose + 10% dialyzed FBS, 0.00702 µM
[26] = RPMI 5 mM glucose + 10% dialyzed FBS, 0.0211 µM
[27] = RPMI 5 mM glucose + 10% dialyzed FBS, 0.0632 µM
[28] = RPMI 5 mM glucose + 10% dialyzed FBS, 0.19 µM
[29] = RPMI 5 mM glucose + 10% dialyzed FBS, 0.569 µM
[30] = RPMI 5 mM glucose + 10% dialyzed FBS, 1.71 µM
[31] = RPMI 5 mM glucose + 10% dialyzed FBS, 5.12 µM
[32] = RPMI 5 mM glucose + 10% dialyzed FBS, 15.4 µM
[33] = RPMI 5 mM glucose + 10% dialyzed FBS, 46.1 µM

| Structure (SMILES) | cell viability [1] | cell viability [2] | cell viability [3] | cell viability [4] | cell viability [5] | cell viability [6] | cell viability [7] | cell viability [8] | cell viability [9] | cell viability [10] | cell viability [11] | cell viability [12] | cell viability [13] | cell viability [14] | cell viability [15] | cell viability [16] | cell viability [17] | cell viability [18] | cell viability [19] | cell viability [20] | cell viability [21] | cell viability [22] | cell viability [23] | cell viability [24] | cell viability [25] | cell viability [26] | cell viability [27] | cell viability [28] | cell viability [29] | cell viability [30] | cell viability [31] | cell viability [32] | cell viability [33] |
| --- | --- | --- | --- | --- | --- | --- | --- | --- | --- | --- | --- | --- | --- | --- | --- | --- | --- | --- | --- | --- | --- | --- | --- | --- | --- | --- | --- | --- | --- | --- | --- | --- | --- |
| CCCCCCNC(=O)N1\C=C(F)/C(=O)NC1=O | 126% | 104% | 113% | 118% | 121% | 118% | 124% | 110% | 121% | 108% | 83.1% | 115% | 118% | 128% | 117% | 134% | 117% | 112% | 129% | 118% | 97.9% | 73.6% | 126% | 108% | 116% | 129% | 120% | 107% | 99.8% | 101% | 106% | 80.5% | 46.4% |
| CCc1ccc(OCc2ccccc2C(=O)Nc2ccc3nc(C)cc(N)c3c2)cc1 | 75.2% | 102% | 98.9% | 90.2% | 104% | 117% | 110% | 109% | 26.6% | 11.3% | 8.33% | 98.5% | 102% | 98.9% | 99.3% | 112% | 111% | 122% | 116% | 109% | 20.7% | 7.66% | 94.4% | 107% | 91.4% | 107% | 103% | 114% | 111% | 102% | 111% | 22.1% | 7.91% |
| CCNC(=O)Nc1ccc(Oc2ncnc(N)c2/C=N/OC)cc1Cl | 96.9% | 100% | 99.8% | 105% | 110% | 112% | 117% | 73.5% | 78.5% | 68.1% | 83.1% | 75.3% | 84.1% | 75.5% | 78.7% | 74.9% | 79.5% | 70.5% | 37.4% | 70% | 44.8% | 56.8% | 99.5% | 103% | 111% | 111% | 108% | 117% | 111% | 55.9% | 75.4% | 56% | 74.7% |
| O=C(O)CCCCCC(=O)NN=C1CCCC1 | 88.6% | 100% | 99.5% | 104% | 119% | 114% | 114% | 117% | 119% | 110% | 104% | 89.8% | 99.3% | 106% | 104% | 96.1% | 104% | 114% | 113% | 100% | 108% | 93.2% | 100% | 99.2% | 111% | 119% | 120% | 101% | 111% | 128% | 117% | 127% | 110% |
| Cc1ccc(C(=O)Nc2cccc(C(F)(F)F)c2)cc1Nc1nc(-c2cccnc2)nc2c1cnn2C | 38.9% | 83.8% | 89.1% | 87.7% | 78.7% | 95.3% | 90.5% | 75.3% | 83.9% | 59% | 53.4% | 58.7% | 103% | 104% | 102% | 85.7% | 101% | 83% | 83% | 98.4% | 56.8% | 60.6% | 31% | 92.1% | 109% | 83.8% | 82.8% | 97.7% | 92.1% | 81.1% | 113% | 68.5% | 62.1% |
| CCCOc1ccc(C(=O)OCCN(CC)CC)cc1N | 85.3% | 105% | 29.3% | 105% | 104% | 118% | 122% | 104% | 108% | 114% | 97.7% | 94.6% | 110% | 10.1% | 118% | 115% | 107% | 114% | 116% | 105% | 120% | 96.3% | 80% | 88% | 23.2% | 104% | 99.3% | 104% | 95.8% | 98.1% | 106% | 102% | 85.3% |
| CC/C=C\C[C@H]1C(=O)CC[C@@H]1CC(=O)OC | 76% | 118% | 130% | 130% | 125% | 118% | 125% | 118% | 113% | 114% | 103% | 60.3% | 109% | 101% | 114% | 109% | 100% | 126% | 102% | 99.3% | 109% | 88.9% | 78% | 112% | 137% | 147% | 153% | 127% | 135% | 120% | 122% | 112% | 120% |
| COC1=CC=C(C=C1)/C2=C(O)/C(=O)C3=C(O)C=C(O)C(=C3O2)CC=C(C)C | 104% | 95.9% | 98.8% | 114% | 122% | 111% | 109% | 118% | 107% | 97.8% | 120% | 86.7% | 86.2% | 90.8% | 85.6% | 95.2% | 100% | 93.4% | 92% | 94.1% | 80.4% | 95.2% | 105% | 103% | 115% | 115% | 120% | 113% | 124% | 118% | 125% | 121% | 108% |
| Nc1nc(F)nc2c1ncn2[C@@H]1O[C@H](COP(=O)(O)O)[C@@H](O)[C@@H]1O | 107% | 123% | 117% | 113% | 128% | 117% | 123% | 56.3% | 35.7% | 16.6% | 8.32% | 107% | 130% | 116% | 92.1% | 114% | 123% | 128% | 73.1% | 93.7% | 19.7% | 11.1% | 103% | 126% | 110% | 98.2% | 134% | 114% | 105% | 52.9% | 46.3% | 18% | 9.23% |
| CCOC(=O)N1CCN(/[N+]([O-])=N/Oc2cc(O/N=[N+](\[O-])N3CCN(C(=O)OCC)CC3)c([N+](=O)[O-])cc2[N+](=O)[O-])CC1 | 90.7% | 86.6% | 93% | 98.6% | 117% | 115% | 122% | 74.4% | 119% | 117% | 116% | 129% | 110% | 118% | 137% | 142% | 138% | 136% | 101% | 142% | 145% | 128% | 117% | 113% | 130% | 145% | 166% | 138% | 134% | 108% | 113% | 142% | 122% |
| COc1cc2c(cc1OC)[C@@H]1Cc3ccc(OC)c(OC)c3CN1CC2 | 94.1% | 123% | 118% | 123% | 114% | 119% | 121% | 122% | 117% | 109% | 109% | 110% | 108% | 103% | 111% | 104% | 109% | 99.3% | 93.9% | 99.4% | 102% | 78.4% | 97.9% | 108% | 113% | 112% | 129% | 124% | 108% | 133% | 122% | 120% | 82.2% |
| CC(C)c1onc(-c2c(Cl)cccc2Cl)c1COc1ccc(/C=C/c2cccc(C(=O)O)c2)c(Cl)c1 | 122% | 130% | 114% | 120% | 121% | 129% | 115% | 116% | 125% | 108% | 91.5% | 117% | 119% | 109% | 128% | 127% | 120% | 105% | 120% | 115% | 106% | 85.7% | 119% | 134% | 120% | 146% | 132% | 128% | 118% | 117% | 115% | 104% | 95.1% |
| N[S+](=O)([O-])c1ccc(Nc2nc(OCC3CCCCC3)c3[nH]cnc3n2)cc1 | 103% | 117% | 106% | 113% | 101% | 115% | 43% | 24% | 23.8% | 16.4% | 3.57% | – | – | – | – | – | – | – | – | – | – | – | 109% | 134% | 114% | 120% | 112% | 109% | 49.6% | 21% | 21.2% | 14.4% | 2.04% |
| CN(C)C/C=C/C(=O)Nc1ccc(C(=O)Nc2cccc(Nc3ncc(Cl)c(-c4c[nH]c5ccccc45)n3)c2)cc1 | 75.1% | 79.4% | 90% | 62.5% | 85.8% | 47.6% | 4.17% | 3.85% | 3.85% | 3.77% | 3.63% | 97.5% | 122% | 128% | 129% | 120% | 68% | 5.08% | 6.09% | 5.71% | 6.09% | 6.13% | 83.4% | 76.3% | 103% | 73.3% | 78.8% | 43.6% | 4.95% | 4.94% | 4.59% | 4.42% | 4.34% |
| Cc1cc(Nc2ncc3c(n2)N(C)C(=O)N(c2cc(NC(=O)c4cccc(C(F)(F)F)c4)ccc2C)C3)n(C)n1 | 88% | 105% | 101% | 88.2% | 115% | 82.3% | 50.1% | 17.8% | 10.8% | 5.81% | 3.72% | 101% | 114% | 111% | 95% | 116% | 79.4% | 40.2% | 11.9% | 7.97% | 5.5% | 3.3% | 108% | 117% | 114% | 93.8% | 128% | 81.3% | 41% | 11.5% | 6.61% | 4.65% | 2.51% |
